Results from US20100311714A1, “1H-IMIDAZO[4,5-c]QUINOLINONE COMPOUNDS” (priority 2009, published 2010).

Key:
PI3K delta = target: T1, PI3K delta (Homo sapiens, UniProt O00329); test: PI3K delta kinase assay (Kinase-Glo luminescence); assay type: biochemical; conditions: read-out: PI3Kdelta/IC50
T1 construct: for the full-length p110-d subunit are generated and fused by overlapping PCR; His tag (C); made in house; host or cells: baculovirus BV1060; Tn5 (Trichoplusia ni) or TiniPro insect cells
Outline: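 Kinase-Glo ATP-depletion luminescence using 10 nM p85(iSH2)-linker-p110δ full-length His-tag construct from insect cells, with 1 μM ATP and 10 μg/mL phosphatidylinositol in 10 mM Tris pH 7.5, 3 mM MgCl2, 50 mM NaCl, 0.05% CHAPS, 1 mM DTT. 60 min room temperature; IC50 from 4-parameter logistic fit over 8 concentrations.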

PI3K gamma = target: T2, PI3K gamma (Homo sapiens, UniProt P48736); test: PI3K gamma kinase assay (Kinase-Glo luminescence); assay type: biochemical; conditions: read-out: PI3Kgamma/IC50
T2 construct: His tag (C); made in house; host or cells: construct from Roger Williams lab (pVL1393); baculovirus BV950; Tn5 (Trichoplusia ni) or TiniPro insect cells
Method: In a more preferred assay, the kinase reaction is performed in a final volume of 10 μL per well of a low volume non binding CORNING, 384 well black plate (Cat. No. #3676). The final concentrations of ATP and phosphatidyl inositol (PI) in the assay are 1 μM and 10 μg/mL respectively. The reaction is started by the addition of ATP.
The components of the assay are added per well as follows:
50 nL test compounds in 90% DMSO per well, in columns 1-20, 8 concentrations (⅓ and 1/3.33 serial dilution step) in single. • Low control: […] of 90% DMSO in half the wells of columns 23-24 (0.45% in final). • High control: 50 nL of reference compound (e.g. compound of Example 7 in WO 2006/122806) in the other half of columns 23-24 (2.5 μM in final). • Standard: 50 nL of reference compound as just mentioned diluted as the test compounds in columns 21-22 • 20 mL ‘buffer’ are prepared per assay: • 200 μL of 1M TRIS HCl pH7.5 (10 mM in final) • 60 μL of 1M MgCl2 (3 mM in final) • 500 μL of 2M NaCl (50 mM in final) • 100 μL of 10% CHAPS (0.05% in final) • 200 μL of 100 mM DTT (1 mM in final) • 18.94 mL of nanopure water • 10 mL ‘PI’ are prepared per assay: • 200 μL of 1 mg/ml L-alpha-Phosphatidylinositol (Liver Bovine, Avanti Polar Lipids Cat. No. 840042C MW=909.12) prepared in 3% OctylGlucoside (10 μg/ml in final) • 9.8 mL of ‘buffer’ • 10 mL ‘ATP’ are prepared per assay: • 6.7 μL of 3 mM stock of ATP giving a final concentration of 1 μM per well • 10 mL of ‘buffer’ • 2.5 mL of each PI3K construct are prepared per assay in ‘PI’ with the following final concentration: • 10 nM PI3K alfa EMV B1075 • 25 nM beta EMV BV949 • 10 nM delta EMV BV1060 • 150 nM gamma EMV BV950 • 5 μL of ‘PI/PI3K’ are added per well. • 5 μl ‘ATP’ are added per well to start the reaction. • The plates are then incubated at room temperature for 60 minutes (alfa, beta, delta) or 120 minutes (gamma). • The reaction is terminated by the addition of 10 μL Kinase-Glo (Promega Cat. No. #6714). • The assay plates are read after 10 minutes in Synergy 2 reader (BioTek, Vermont USA) with an integration time of 100 milliseconds and sensitivity set to 191. • Output: The High control is around 60′000 counts and the Low control is 30′000 or lower • This luminescence assay gives a useful Z′ ratio between 0.4 and 0.7
PI3K gamma is purified in two chromatographic steps: immobilized metal affinity chromatography (IMAC) on a Ni Sepharose resin (GE Healthcare) and gel filtration (GFC) utilizing a Superdex 200 26/60 column (GE Healthcare). All buffers are chilled to 4° C. and lysis is performed chilled on ice. Column fractionation is performed rapidly at room temperature. Typically frozen insect cells are lysed in a hypertonic lysis buffer and applied to a prepared IMAC column. The resin is washed with 3-5 column volumes of lysis buffer, followed by 3-5 column volumes wash buffer containing 45 mM imidazole, and the target protein is then eluted with a buffer containing 250 mM imidazole. Fractions are analyzed by Coomassie stained SDS-PAGE gels, and fractions containing target protein are pooled and applied to a prepared GFC column. Fractions from the GFC column are analyzed by Coomassie stained SDS-PAGE gels, and fractions containing target protein are pooled. The final pool is dialyzed into a storage buffer containing 50% glycerol and stored at −20° C. The final pool is assayed for activity in the phosphoinostitol kinase assay.
IC50 is determined by a four parameter curve fitting routine that comes along with “excel fit”. A 4 Parameter logistic equation is used to calculate IC50 values (IDBS XLfit) of the percentage inhibition of each compound at 8 concentrations (usually 10, 3.0, 1.0, 0.3, 0.1, 0.030, 0.010 and 0.003 μM). Alternatively, IC50 values are calculated using idbsXLfit model 204, which is a 4 parameter logistic model.

T1 sequence (O00329 with tags, fused parts or gaps limits assumed): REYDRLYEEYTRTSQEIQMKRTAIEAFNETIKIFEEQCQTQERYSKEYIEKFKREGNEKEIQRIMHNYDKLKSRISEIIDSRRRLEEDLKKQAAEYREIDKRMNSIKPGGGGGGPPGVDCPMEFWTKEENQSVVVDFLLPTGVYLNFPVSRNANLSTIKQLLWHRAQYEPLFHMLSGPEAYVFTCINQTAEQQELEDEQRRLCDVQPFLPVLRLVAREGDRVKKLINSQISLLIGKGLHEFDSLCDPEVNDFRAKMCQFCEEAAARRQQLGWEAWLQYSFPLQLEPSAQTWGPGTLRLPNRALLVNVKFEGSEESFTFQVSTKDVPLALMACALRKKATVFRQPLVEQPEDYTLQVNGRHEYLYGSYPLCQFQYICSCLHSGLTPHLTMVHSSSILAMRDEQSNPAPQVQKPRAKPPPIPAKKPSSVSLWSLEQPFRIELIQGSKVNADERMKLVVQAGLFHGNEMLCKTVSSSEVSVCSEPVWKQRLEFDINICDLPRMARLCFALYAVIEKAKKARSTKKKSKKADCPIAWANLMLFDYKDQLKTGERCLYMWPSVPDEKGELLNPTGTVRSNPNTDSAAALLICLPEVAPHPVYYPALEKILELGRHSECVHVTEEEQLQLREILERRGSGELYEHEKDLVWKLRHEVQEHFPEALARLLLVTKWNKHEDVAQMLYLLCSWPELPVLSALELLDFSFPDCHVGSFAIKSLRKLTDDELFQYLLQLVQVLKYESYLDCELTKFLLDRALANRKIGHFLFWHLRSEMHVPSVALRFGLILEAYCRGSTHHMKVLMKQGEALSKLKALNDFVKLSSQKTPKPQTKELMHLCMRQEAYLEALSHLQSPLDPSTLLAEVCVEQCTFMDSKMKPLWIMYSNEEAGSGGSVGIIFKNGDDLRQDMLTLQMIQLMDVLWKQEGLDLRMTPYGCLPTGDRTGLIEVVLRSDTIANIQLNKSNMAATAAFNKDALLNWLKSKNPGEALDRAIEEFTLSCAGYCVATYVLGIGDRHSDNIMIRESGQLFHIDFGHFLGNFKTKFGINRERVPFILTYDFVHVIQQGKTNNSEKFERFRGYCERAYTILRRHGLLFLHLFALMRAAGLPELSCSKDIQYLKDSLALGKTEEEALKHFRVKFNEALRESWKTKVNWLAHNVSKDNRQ
T2 sequence (P48736 144-1102 limits assumed): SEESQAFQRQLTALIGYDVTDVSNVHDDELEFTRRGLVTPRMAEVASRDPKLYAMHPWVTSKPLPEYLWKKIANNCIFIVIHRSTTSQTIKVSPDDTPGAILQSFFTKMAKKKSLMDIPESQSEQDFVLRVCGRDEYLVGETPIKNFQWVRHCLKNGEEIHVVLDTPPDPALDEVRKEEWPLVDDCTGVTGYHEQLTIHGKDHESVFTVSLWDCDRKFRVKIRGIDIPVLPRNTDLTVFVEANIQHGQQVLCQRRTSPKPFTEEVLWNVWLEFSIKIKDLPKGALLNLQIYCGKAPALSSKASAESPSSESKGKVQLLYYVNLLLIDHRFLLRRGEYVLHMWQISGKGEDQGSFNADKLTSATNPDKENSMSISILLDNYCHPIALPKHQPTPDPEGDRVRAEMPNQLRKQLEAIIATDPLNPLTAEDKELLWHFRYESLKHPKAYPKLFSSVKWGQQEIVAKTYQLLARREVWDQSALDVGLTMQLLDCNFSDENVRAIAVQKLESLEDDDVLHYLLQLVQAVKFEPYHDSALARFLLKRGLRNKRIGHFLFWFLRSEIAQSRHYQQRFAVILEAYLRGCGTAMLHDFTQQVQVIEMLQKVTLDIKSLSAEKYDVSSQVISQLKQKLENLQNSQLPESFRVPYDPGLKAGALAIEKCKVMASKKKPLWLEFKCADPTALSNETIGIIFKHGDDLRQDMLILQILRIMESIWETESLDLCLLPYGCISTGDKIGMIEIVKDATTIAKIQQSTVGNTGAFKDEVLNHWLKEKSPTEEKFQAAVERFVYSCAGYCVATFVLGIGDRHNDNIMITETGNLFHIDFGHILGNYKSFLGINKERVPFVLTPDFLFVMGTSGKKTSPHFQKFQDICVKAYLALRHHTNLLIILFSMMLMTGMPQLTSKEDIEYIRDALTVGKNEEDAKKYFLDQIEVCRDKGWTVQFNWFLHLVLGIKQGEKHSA

| IC50 (PI3K delta) [nM] | IC50 (PI3K gamma) [nM] | Structure (SMILES) |
| --- | --- | --- |
| 64 | 206 | CCOc1ccc(-c2ccc3ncc4c(c3c2)n(-c2cccnc2F)c(=O)n4C)cn1 [Example 6.1, 8-(6-Ethoxy-pyridin-3-yl)-1-(2-fluoro-pyridin-3-yl)-3-methyl-1,3-dihydro-imidazo[4,5-c]quinolin-2-one] |
| 37 | 126 | COc1ccc(-c2ccc3ncc4c(c3c2)n(-c2cccnc2C)c(=O)n4C)cc1OC [Example 2.9, 8-(3,4-Dimethoxy-phenyl)-3-methyl-1-(2-methyl-pyridin-3-yl)-1,3-dihydro-imidazo[4,5-c]quinolin-2-one] |
| 88 | 943 | Cn1c(=O)n(-c2cccnc2)c2c3cc(-c4ccc(CO)nc4)ccc3ncc21 [Example 5.1, 8-(6-Hydroxymethyl-pyridin-3-yl)-3-methyl-1-pyridin-3-yl-1,3-dihydro-imidazo[4,5-c]quinolin-2-one] |
| 163 | 120 | COc1ncccc1-n1c(=O)n(C)c2cnc3ccc(-c4ccc(C(N)=O)cc4)cc3c21 [Example 1.6, 4-[1-(2-Methoxy-pyridin-3-yl)-3-methyl-2-oxo-2,3-dihydro-1H-imidazo[4,5-c]quinolin-8-yl]-benzamide] |
| 151 | 307 | COc1ccc(-c2ccc3ncc4c(c3c2)n(-c2ncccc2C)c(=O)n4C)cc1OC [Example 3.10, 8-(3,4-Dimethoxy-phenyl)-3-methyl-1-(3-methyl-pyridin-2-yl)-1,3-dihydro-imidazo[4,5-c]quinolin-2-one] |
| 401 | 546 | CCOc1ccc(-c2ccc3ncc4c(c3c2)n(-c2cnccc2C)c(=O)n4C)cn1 [Example 4.2, 8-(6-Ethoxy-pyridin-3-yl)-3-methyl-1-(4-methyl-pyridin-3-yl)-1,3-dihydro-imidazo[4,5-c]quinolin-2-one] |
| 12 | 124 | Cc1ncccc1-n1c(=O)n(C)c2cnc3ccc(-c4cnc(N)c(C(F)(F)F)c4)cc3c21 [Example 2.11, 8-(6-Amino-5-trifluoromethyl-pyridin-3-yl)-3-methyl-1-(2-methyl-pyridin-3-yl)-1,3-dihydro-imidazo[4,5-c]quinolin-2-one] |
| 834 | 322 | Cc1cccnc1-n1c(=O)n(C)c2cnc3ccc(-c4ccc(C(N)=O)cc4)cc3c21 [Example 3.3, 4-[3-Methyl-1-(3-methyl-pyridin-2-yl)-2-oxo-2,3-dihydro-1H-imidazo[4,5-c]quinolin-8-yl]-benzamide] |
| 21 | 202 | Cc1cccnc1-n1c(=O)n(C)c2cnc3ccc(-c4cnc(N)c(C(F)(F)F)c4)cc3c21 [Example 3.12, 8-(6-Amino-5-trifluoromethyl-pyridin-3-yl)-3-methyl-1-(3-methyl-pyridin-2-yl)-1,3-dihydro-imidazo[4,5-c]quinolin-2-one] |
| 32 | 242 | COc1ccc(-c2ccc3ncc4c(c3c2)n(-c2cccnc2C)c(=O)n4C)cn1 [Example 2.12, 8-(6-Methoxy-pyridin-3-yl)-3-methyl-1-(2-methyl-pyridin-3-yl)-1,3-dihydro-imidazo[4,5-c]quinolin-2-one] |
| 13 | 168 | COc1ncccc1-n1c(=O)n(C)c2cnc3ccc(-c4cnc5[nH]ccc5c4)cc3c21 [Example 1.2, 1-(2-Methoxy-pyridin-3-yl)-3-methyl-8-(1H-pyrrolo[2,3-b]pyridin-5-yl)-1,3-dihydro-imidazo[4,5-c]quinolin-2-one] |
